According to US4791215A, “Derivatives of glutamic acid and aspartic acid” (priority 1984, dated 1988):

Columns and labels:
[1] = tested on: CCK-8 induced contraction of guinea pig gall bladder; experiment: Anti-CCK activity on gall bladder strips in vitro; conditions: CCK-8 10 ng/ml
In short: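 Longitudinal guinea pig gall bladder strips in Krebs at 32 °C, gassed with O2/CO2 95:5, were contracted with 10 ng/ml CCK-8. Isometric force was recorded across several compound concentrations, and ED50 was taken as the μg/ml concentration antagonising 50% of the CCK contraction.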

[2] = tested on: morphine analgesia; experiment: Increase in analgesia of morphine, Tail Flick Test (Experiment 1); format: in vivo, rats; conditions: for percentage variation of latency of pain sensation / M (10-90) ± SE, mean percentage variation of latency: compound 10 mg/kg i.p. + morphine 2 mg/kg; for M (10-90) ± SE, mean percentage variation of latency: mean 10-90 min; for Power ratio with respect to morphine alone: rat, in vivo
In short: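 Non-fasted male rats (150-200 g); a tail point is exposed to a 75 °C heat source and latency to tail movement recorded, 8 s cut-off. Readings taken before and 10, 20, 30, 45, 60 and 90 min after analgesic treatment; percentage variation calculated per animal.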

Row | SMILES | ED50 (concentration antagonising 50% of contracting effect of CCK-8) [1] [µg/mL] | percentage variation of latency of pain sensation ([2]; 10') [%] | percentage variation of latency of pain sensation ([2]; 20') [%] | percentage variation of latency of pain sensation ([2]; 30') [%] | percentage variation of latency of pain sensation ([2]; 45') [%] | percentage variation of latency of pain sensation ([2]; 60') [%] | percentage variation of latency of pain sensation ([2]; 90') [%] | M (10-90) ± SE, mean percentage variation of latency [2] [%] | Power ratio with respect to morphine alone [2]
1 | CCCCN(CCCC)C(=O)C(CCC(=O)O)NC(=O)c1ccc(C)c(C)c1 (stereo not drawn) [Compound C-54] | 1.2 | 77.0 ± 10 | 89.1 ± 11 | 100 ± 0 | 99.2 ± 0.8 | 69.6 ± 16 | 63.2 ± 19 | 83.0 ± 15 | 2.78
2 | CCCCCN(CCCCC)C(=O)C(CCC(=O)O)NC(=O)c1ccc(C)c(C)c1 (stereo not drawn) [Compound C-55] | 0.5 | 89.3 ± 16 | 86.2 ± 12 | 94.4 | 100 ± 0 | 100 ± 0 | 81.7 ± 13 | 88.6 ± 12 | 2.97
3 | CN(C)C(=O)CCC(NC(=O)c1ccc(Cl)c(Cl)c1)C(=O)O [Compound D-1] | > 200 | 75.0 ± 16.0 | 100.0 ± 0.0 | 100.0 ± 0.0 | 86.4 ± 14.0 | 100.0 ± 0.0 | 51.0 ± 21.0 | 85.4 ± 19.7 | 2.86
4 | CCCCNC(=O)CC(NC(=O)c1ccc(Cl)c(Cl)c1)C(=O)O [Compound D-3] | > 200 | 63.8 ± 17.0 | 79.9 ± 13.0 | 100.0 ± 0.0 | 58.6 ± 18.0 | 33.8 ± 18.0 | 32.9 ± 10.0 | 61.5 | 2.06
5 | CCCCN(CCCC)C(=O)CCC(NC(=O)c1ccc(Br)cc1)C(=O)O [Compound D-4] | > 200 | 72.8 ± 15.0 | 95.8 ± 3.0 | 96.3 ± 4.0 | 85.5 | 87.5 ± 8.0 | 45.3 ± 6.0 | 80.5 ± 19.3 | 2.70
6 | O=C(NC(CCC(=O)N1CCOCC1)C(=O)O)c1ccc(Br)cc1 [Compound D-6] | > 200 | 31.2 ± 22.0 | 45.8 ± 23.0 | 50.7 | 44.5 ± 24.0 | 45.3 ± 24.0 | 28.2 ± 19.0 | 41.0 ± 9.0 | 1.37
